For data set [1], the system named is Aspergillus niger ATCC#16404. In words: MIC / synergy index test in 96 well microtiter plates. The class given is cell-based. The note with it: ATCC16404, read-out: CB (MIC of compound B alone). How it is done:
(§1) Surfactants and biocides were evaluated for synergy by determining the synergy index (S.I.) of the combination. Synergy index was calculated based on minimum inhibitory concentrations (MIC) of two antimicrobial compounds (A and B) alone and in combinations. The tests organisms were Gram negative bacteria (Pseudomonas aeruginosa ATCC #15442),
(§2) Gram positive bacteria (Staphylococcus aureus ATCC #6538), yeast (Candida albicans ATCC#10203) and mold (Aspergillus niger ATCC#16404). Contact time for the bacteria was 24 and 48 hours, yeast was 48 and 72 hrs, and 3 and 7 days for mold. The test was carried out in 96 well microtiter plates. • Surf. A R^1O(CH2CH(CH3)o)5(CH2CH2O)9H, where R^1 is 2-ethylhexyl • Surf. D R^2O(CH2CH(CH3)o)3(CH2CH2O)5H • Surf. E R^2O(CH2CH(CH3)o)3(CH2CH2O)7H • In Surf. D and Surf. E, R^2 is a mixture of C8-C14 linear alkyl groups (70% C8-C10 linear alkyl and 30% C12-C14 linear alkyl)
(§3) The pH of the Triptic soy broth was 7.3 and the Potato dextrose broth was 5.1.
(§4) SI is calculated as follows: Ca/CA+Cb/CB=Synergy Index (“SI”)
(§5) Wherein: • CA=concentration of compound A in ppm, acting alone, which produced an end point (MIC of Compound A). • Ca=concentration of compound A in ppm, in the mixture, which produced an end point. • CB=concentration of compound B in ppm, acting alone, which produced an end point (MIC of Compound B). • Cb=concentration of compound B in ppm, in the mixture, which produced an end point. When the sum of Ca/CA and Cb/CB is greater than one, antagonism is indicated.

In data set [2] the test system is Staphylococcus aureus ATCC #6538. Described as above. The class given is cell-based. The following applies: 1/10 TSB; for MIC: Staphylococcus aureus, ATCC6538, 24 h, Phenoxyethanol alone. How it is done:
as §1, §2, §3, §4, §5

The subject of data set [3] is Pseudomonas aeruginosa ATCC #15442. Described as above. The data set is classed as cell-based. The note with it: 1/10 TSB; for MIC: Pseudomonas aeruginosa, ATCC15442, 24 h, Phenoxyethanol alone, read-out: CB (MIC of compound B alone). As for the experimental part:
as §1, §2, §3, §4, §5

Data set [4] has as its system Candida albicans ATCC#10203. Described as above. The data set is classed as cell-based. The note with it: ATCC10203, 48 h, read-out: CB (MIC of compound B alone). As for the experimental part: as §1, §2, §3, §4, §5
Data set [5] can be described thus: Stability Testing of phenoxyethanol/surfactant solutions. The data set is classed as physicochemical. The note with it: 33% phenoxyethanol in 70% isopropanol with surfactant, PE:Surfactant 1:27. As for the experimental part: A solution of phenoxyethanol in 70% (v/v) isopropanol was made and diluted with surfactant to give the desired ratios of biocide to surfactant. Additional 70% isopropanol was added as needed to give a 33 wt % solution of phenoxyethanol. The samples were split into three vials. One vial was stored at room temperature, one was stored at 40 C and one was stored at 50 C. […] Samples that were cloudy or highly discolored were determined to be unstable.

One may read the MIC as the least concentration at which growth counts as inhibited.

Read-outs that look alike come from different tables or passages of the source.

For `OCCOc1ccccc1` [Phenoxyethanol, 2-phenoxy-1-ethanol], the MIC in data set [1] was determined as 4000 µg/mL; in data set [2] (series with Surf. A, inoculum 1.156E-+06CFU/ml, read-out: CB (MIC of compound B alone)) it was 8000 µg/mL; in data set [2] (series with Surf. D, inoculum 1.808E+05, read-out: CB (MIC of compound B alone)) it was 10000 µg/mL; in data set [2] (series with Surf. E, inoculum 1.808E+06CFU/ml, read-out: CB (MIC of compound B alone)) it was 8000 µg/mL; in data set [3] (series with Surf. A, inoculum 8.134E+07CFU/ml), 5000 µg/mL; in data set [3] (series with Surf. D, inoculum 1.16E+05CFU/ml), 4000 µg/mL. The MIC in data set [3] (series with Surf. E, inoculum 5.727E+07CFU/ml) was 4000 µg/mL; in data set [4] it was 4000 µg/mL.

As to `CCCCC(CC)COCC(C)OCC(C)OCC(C)OCC(C)OCC(C)OCCOCCOCCOCCOCCOCCOCCOCCOCCO` (centres unmarked) [Surf. A, R^1O(CH2CH(CH3)o)5(CH2CH2O)9H, where R^1 is 2-ethylhexyl], the “CA (MIC of compound A alone)” value in data set [2] (Surf. A alone, 24 hrs, inoculum 1.156E-+06CFU/ml) is given as over 20000 ppm; in data set [3] (Surf. A alone, 24 hrs, inoculum 8.134E+07CFU/ml), over 20000 ppm.

POLYSORBATE 20: the “Stability (appearance)” value in data set [5] (Day 2, 40° C.) is reported as “Slightly”; in data set [5] (Day 2, 50° C.), “Slightly”; in data set [5] (Day 7, 40° C.), “Slightly”; in data set [5] (Day 7, 50° C.), “Slightly”.

The values above are taken from patent US9585389B2, “Microbicidal composition” (Dow Global Technologies LLC, priority 2013, dated 2017).
